molecular target: T1, human Y4 receptor (Homo sapiens, UniProt P50391); experiment: NPY4 cAMP HTRF Agonist Assay (inhibitory cAMP assay, Gi activation by Y4 agonism); format: cell-based; conditions: TABLE 2, R2 is Phenyl-CN; read-out: hY4 CAMP EC50
T1 construct: expressed in transfected cells
Outline: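 CHO cells stably expressing human Y4, 5000/well, exposed to compound with forskolin and IBMX in PBS for 30 min at room temperature. Gi-mediated inhibition of cAMP then measured by HTRF after 1 h with d2-conjugate and anti-cAMP cryptate.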

T1 sequence (P50391 whole entry): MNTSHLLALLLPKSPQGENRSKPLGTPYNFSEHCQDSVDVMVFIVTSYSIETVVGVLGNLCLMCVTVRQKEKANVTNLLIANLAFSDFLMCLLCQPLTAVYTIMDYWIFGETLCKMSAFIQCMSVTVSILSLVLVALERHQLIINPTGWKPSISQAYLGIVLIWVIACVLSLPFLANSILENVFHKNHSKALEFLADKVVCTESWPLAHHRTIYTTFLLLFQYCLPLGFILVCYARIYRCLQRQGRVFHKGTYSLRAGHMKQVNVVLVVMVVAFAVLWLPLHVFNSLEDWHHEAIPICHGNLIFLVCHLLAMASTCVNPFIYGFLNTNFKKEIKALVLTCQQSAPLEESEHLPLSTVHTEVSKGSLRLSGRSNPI

Structure (SMILES) | EC50 [nM]
CC(=O)Nc1cccc(-c2ccnc(N[C@@H]3CCCC[C@H]3N[C@H]3CCCN(c4ccc(C#N)cc4)C3)c2)c1 [Example 251] | 1
CN(C)c1cccc(-c2ccnc(N[C@@H]3CCCC[C@H]3N[C@H]3CCCN(c4ccc(C#N)cc4)C3)c2)c1 [Example 240] | 72
N#Cc1ccc(N2CCC[C@H](N[C@@H]3CCCC[C@H]3Nc3cc(-c4cnc5ccccc5c4)ccn3)C2)cc1 [Example 217] | 478
N#Cc1ccc(N2CCC[C@H](N[C@@H]3CCCC[C@H]3Nc3cc(-c4ccc5cn[nH]c5c4)ccn3)C2)cc1 [Example 215] | 215
N#Cc1ccc(N2CCC[C@H](N[C@@H]3CCCC[C@H]3Nc3cc(-c4ccc5[nH]ncc5c4)ccn3)C2)cc1 [Example 210] | 640
CC(C)(C)c1cccc(-c2ccnc(N[C@@H]3CCCC[C@H]3N[C@H]3CCCN(c4ccc(C#N)cc4)C3)c2)c1 [Example 259] | 59
N#Cc1ccc(N2CCC[C@H](N[C@@H]3CCCC[C@H]3Nc3cc(-c4cccc5c4CC(=O)N5)ccn3)C2)cc1 [Example 212] | 13

Further lines, results first:

EC50 [nM] | Structure (SMILES)
557 | N#Cc1ccc(N2CCC[C@H](N[C@@H]3CCCC[C@H]3Nc3cc(-c4ccccc4Cl)ccn3)C2)cc1 [Example 248]
211 | COC(=O)c1ccccc1-c1ccnc(N[C@@H]2CCCC[C@H]2N[C@H]2CCCN(c3ccc(C#N)cc3)C2)c1 [Example 203]

same assay, conditions: TABLE 3, R2 is Phenyl-NO2; read-out: hY4 CAMP EC50

EC50 [nM] | Structure (SMILES)
163 | N#Cc1cccc(-c2ccnc(N[C@@H]3CCCC[C@H]3N[C@H]3C[C@@H]4C[C@H]3N(c3ccc([N+](=O)[O-])cc3)C4)c2)c1 [Example 293]
1 | C[C@]1(N[C@@H]2CCCC[C@H]2Nc2ncc(-c3ccc(OC(F)(F)F)cc3)o2)CCCN(c2ccc([N+](=O)[O-])cc2)C1 [Example 287]
26 | N#Cc1ccc(-c2cnc(N[C@@H]3CCCC[C@H]3N[C@H]3CCCN(c4ccc([N+](=O)[O-])cc4)C3)o2)cc1 [Example 285]

same assay, conditions: TABLE 4, R2 is Pyridinyl-CN; read-out: hY4 CAMP EC50

EC50 [nM] | Structure (SMILES)
66 | C[C@]1(N[C@@H]2CCCC[C@H]2Nc2cc(-c3cccc(C(N)=O)c3)ccn2)CCCN(c2ccc(C#N)cn2)C1 [Example 301]

same assay, conditions: TABLE 7, R2 is Pyridinyl-oxadiazole-CH3; read-out: hY4 CAMP EC50

EC50 [nM] | Structure (SMILES)
2 | Cc1nc(-c2ccc(N3CCC[C@H](N[C@@H]4CCCC[C@H]4Nc4nccc(-c5ccccc5)n4)C3)nc2)no1 [Example 391]
606 | Cc1nc(-c2ccc(N3CCC[C@H](N[C@@H]4CCCC[C@H]4Nc4ncc(-c5cccc(C(=O)O)c5)o4)C3)cn2)no1 [Example 384]

same assay, conditions: human Y4 receptor, cAMP; read-out: hY4 CAMP EC50

Structure (SMILES) | EC50 [nM]
COC(=O)Nc1cccc(-c2ccnc(N[C@@H]3CCCC[C@H]3N[C@H]3CCCN(c4cnc(-c5noc(C)n5)nc4)C3)c2)c1 [Example 465] | 0.02
CC(C)COC(=O)Nc1cccc(-c2cnc(N[C@@H]3CCCC[C@H]3N[C@H]3CCCN(c4cnc(C(F)(F)F)nc4)C3)o2)c1 [Example 419] | 7
CC(C)(C)COC(=O)Nc1cccc(-c2cnc(N[C@@H]3CCCC[C@H]3N[C@H]3CCCN(c4cnc(C(F)(F)F)nc4)C3)o2)c1 [Example 420] | 212
NC(=O)c1cccc(-c2ccnc(N[C@@H]3CCCC[C@H]3N[C@H]3CCCN(c4cnc(C(F)(F)F)nc4)C3)c2)c1 [Example 408] | 121
Nc1cccc(-c2cnc(N[C@@H]3CCCC[C@H]3N[C@H]3CCCN(c4cnc(C(F)(F)F)nc4)C3)o2)c1 [Example 412] | 69
NC(=O)c1cccc(-c2ccnc(N[C@@H]3CCCC[C@H]3N[C@H]3C[C@@H]4C[C@H]3N(c3cnc(C(F)(F)F)cn3)C4)c2)c1 [Example 471] | 329
C[C@]1(N[C@@H]2CCCC[C@H]2Nc2ncc(-c3cccc(C(N)=O)c3)o2)CCCN(c2ncc(C#N)cn2)C1 [Example 432] | 29
Cc1noc(-c2ccc(N3CCC[C@H](N[C@@H]4CCCC[C@H]4Nc4ncc(-c5cccc(C(N)=O)c5)o4)C3)cc2)n1 [Example 379] | 1

Continued, values first:

EC50 [nM] | Structure (SMILES)
63 | Cc1nc2ccc(N3CCC[C@H](N[C@@H]4CCCC[C@H]4Nc4ncc(-c5cc(F)c(F)c(F)c5)o4)C3)cn2n1 [Example 498]
39 | Cc1nc(-c2ncc(N3CCC[C@H](N[C@@H]4CCCC[C@H]4Nc4cc(-c5cccc(C(N)=O)c5)ccn4)C3)cn2)no1 [Example 463]
28 | Cn1cnc(-c2ccc(N3CCC[C@H](N[C@@H]4CCCC[C@H]4Nc4cc(-c5cccc(O)c5)ccn4)C3)cc2)n1 [Example 456]
107 | FC(F)(F)Oc1ccc(-c2cnc(N[C@@H]3CCCC[C@H]3N[C@H]3CCCN(c4ccc5ncnn5c4)C3)o2)cc1 [Example 482]
482 | N#Cc1ccc(N2C[C@@H]3C[C@H](N[C@@H]4CCCC[C@H]4Nc4ncc(-c5ccc(OC(F)(F)F)cc5)o4)[C@H]2C3)nn1 [Example 443]
144 | N#Cc1cnc(N2C[C@@H]3C[C@H](N[C@@H]4CCCC[C@H]4Nc4ncc(-c5cccc(C(N)=O)c5)o4)[C@H]2C3)nc1 [Example 433]
9 | Cc1nc(-c2ncc(N3CCC[C@H](N[C@@H]4CCCC[C@H]4Nc4cc(-c5ccc(F)cc5F)ccn4)C3)cn2)no1 [Example 468]

same assay, conditions: human Y4 stable CHO clonal cells, forskolin + IBMX; read-out: NPY4 cAMP HTRF Agonist Assay EC50

Structure (SMILES) | EC50 [nM]
CC(C)(C)OC(=O)/C=C\c1ccnc(N[C@@H]2CCCC[C@H]2N[C@H]2CCCN(c3ccc(C#N)cc3)C2)c1 [Example 108, (Z)-tert-butyl 3-(2-(((1R,2R)-2-(((S)-1-(4-cyanophenyl)piperidin-3-yl)amino)cyclohexyl)amino)pyridin-4-yl)acrylate] | 21
Cc1nnc(-c2ccc(N3CCC[C@H](N[C@@H]4CCCC[C@H]4Nc4ncc(-c5ccc(OC(F)(F)F)cc5)o4)C3)cc2)o1 [Example 85, (1R,2R)—N1-((S)-1-(4-(5-Methyl-1,3,4-oxadiazol-2-yl)phenyl)piperidin-3-yl)-N2-(5-(4-(trifluoromethoxy)phenyl)oxazol-2-yl)cyclohexane-1,2-diamine] | 145
Cc1ccn(-c2ccc(N3CCC[C@H](N[C@@H]4CCCC[C@H]4Nc4ncc(-c5ccc(OC(F)(F)F)cc5)o4)C3)cc2)n1 [Example 68, (1R,2R)—N1-((S)-1-(4-(3-Methyl-1H-pyrazol-1-yl)phenyl)piperidin-3-yl)-N2-(5-(4-(trifluoromethoxy)phenyl)oxazol-2-yl)cyclohexane-1,2-diamine bis-trifluoroacetate] | 489
N#Cc1ccc(N2CCC[C@H](N[C@@H]3CCCC[C@H]3Nc3ncc(-c4ccc(OC(F)(F)F)cc4)o3)C2)cc1F [Example 49, 2-Fluoro-4-((S)-3-((1R,2R)-2-(5-(4-(trifluoromethoxy)phenyl)oxazol-2-ylamino)cyclohexylamino)piperidin-1-yl)benzonitrile bis-trifluoroacetate] | 2
N#Cc1ccc(N2CCC[C@H](N[C@@H]3CCCC[C@H]3Nc3cc(-c4ccc(F)cc4)ccn3)C2)cc1 [Example 44, 4-((S)-3-((1R,2R)-2-(4-(4-Fluorophenyl)pyridin-2-ylamino)cyclohexylamino)piperidin-1-yl)benzonitrile tris-trifluoroacetate] | 50
CC(C)(C)C(=O)OCc1ccnc(N[C@@H]2CCCC[C@H]2N[C@H]2CCCN(c3ccc(C#N)cc3)C2)c1 [Example 111, (2-(((1R,2R)-2-(((S)-1-(4-cyanophenyl)piperidin-3-yl)amino)cyclohexyl)amino)pyridin-4-yl)methyl pivalate] | 562
FC(F)(F)c1ccc(N2CCC[C@H](N[C@@H]3CCCC[C@H]3Nc3cc(-c4ccccc4)ccn3)C2)cc1 [Example 75, (1R,2R)—N1-(4-Phenylpyridin-2-yl)-N2-((S)-1-(4-(trifluoromethyl)phenyl)piperidin-3-yl)cyclohexane-1,2-diamine] | 252

Further lines, results first:

EC50 [nM] | Structure (SMILES)
2510 | N#Cc1ccc(N2CCC[C@H](N[C@@H]3CCCC[C@H]3Nc3noc(-c4ccccc4)n3)C2)cc1 [Example 41]
60 | O=[N+]([O-])c1ccc(N2CCC[C@H](N[C@@H]3CCCC[C@H]3Nc3nccc(-c4ccccc4)n3)C2)cc1 [Example 32, (1R,2R)—N1-((S)-1-(4-Nitrophenyl)piperidin-3-yl)-N2-(4-phenylpyrimidin-2-yl)cyclohexane-1,2-diamine]
29 | N#Cc1ccc(N2CCC[C@H](N[C@@H]3CCCC[C@H]3Nc3nccc(-c4ccccc4)n3)C2)cc1Cl [Example 40, 2-Chloro-4-((S)-3-((1R,2R)-2-(4-phenylpyrimidin-2-ylamino)cyclohexylamino)piperidin-1-yl)benzonitrile bis-trifluoroacetate]

same assay, conditions: second TABLE 1, R2 is Phenyl-CF3; read-out: hY4 CAMP EC50

EC50 [nM] | Structure (SMILES)
1040 | Cn1cc(-c2ccnc(N[C@@H]3CCCC[C@H]3N[C@H]3CCCN(c4ccc(C(F)(F)F)cc4)C3)c2)cn1 [Example 188]
11 | CC(C)NC(=O)c1cccc(-c2cnc(N[C@@H]3CCCC[C@H]3N[C@H]3CCCN(c4ccc(C(F)(F)F)cc4)C3)o2)c1 [Example 125]
48 | FC(F)(F)c1ccc(N2CCC[C@H](N[C@@H]3CCCC[C@H]3Nc3cc(-c4ccncc4)ccn3)C2)cc1 [Example 191]
2 | O=C(Nc1cccc(-c2ccnc(N[C@@H]3CCCC[C@H]3N[C@H]3CCCN(c4ccc(C(F)(F)F)cc4)C3)c2)c1)OCCF [Example 137]
258 | FC(F)(F)c1ccc(N2CCC[C@H](N[C@@H]3CCCC[C@H]3Nc3ncc(Br)cn3)C2)cc1 [Example 182]
107 | CC(C)NCc1cccc(-c2ccnc(N[C@@H]3CCCC[C@H]3N[C@H]3CCCN(c4ccc(C(F)(F)F)cc4)C3)c2)c1 [Example 143]
5 | Nc1cccc(-c2cnc(N[C@@H]3CCCC[C@H]3N[C@H]3CCCN(c4ccc(C(F)(F)F)cc4)C3)o2)c1 [Example 172]
38 | OCc1cc(-c2ccnc(N[C@@H]3CCCC[C@H]3N[C@H]3CCCN(c4ccc(C(F)(F)F)cc4)C3)c2)ccc1F [Example 165]
606 | N#Cc1ccnc(N[C@@H]2CCCC[C@H]2N[C@H]2CCCN(c3ccc(C(F)(F)F)cc3)C2)n1 [Example 194]

From patent publication US8815909B2, “Diaminocyclohexane compounds and uses thereof” (Bristol-Myers Squibb Company, priority 2011, dated 2014)
